Measurements reported in the NIST ThermoML archive (doi:10.1021/je500513b).

Assay: mn = molality of the nth substance listed, in mol/kg
Details: for surface tension liquid-gas: Pendant drop shape; for electrical conductivity: 100 kPa, Liquid, Mettler Toledo inLab 710

CCCCCCCCCCCCCC[N+](C)(C)CCCC[N+](C)(C)CCCCCCCCCCCCCC.[Br-].[Br-] + O
Details | electrical conductivity, 298.15 K [S/m] | electrical conductivity, 303.15 K [S/m] | electrical conductivity, 308.15 K [S/m] | electrical conductivity, 313.15 K [S/m] | electrical conductivity, 318.15 K [S/m] | electrical conductivity, 323.15 K [S/m] | surface tension liquid-gas, 298.15 K [mN/m]
m1 = 1e-05 | – | – | – | – | – | – | 58.66
m1 = 2e-05 | – | – | – | – | – | – | 56.16
m1 = 3e-05 | – | – | – | – | – | – | 51.87
m1 = 4e-05 | – | – | – | – | – | – | 50.69
m1 = 5e-05 | – | – | – | – | – | – | 49.28
m1 = 6e-05 | – | – | – | – | – | – | 47.86
m1 = 7e-05 | – | – | – | – | – | – | 45.48
m1 = 8e-05 | – | – | – | – | – | – | 44.02
m1 = 9e-05 | – | – | – | – | – | – | 43.09
m1 = 0.0001 | – | – | – | – | – | – | 42.13
m1 = 0.000111 | 0.00256 | – | 0.00315 | 0.00337 | – | 0.00418 | –
m1 = 0.000118 | 0.0027 | 0.00296 | 0.00332 | 0.00354 | 0.00387 | 0.00442 | –
m1 = 0.00012 | – | – | – | – | – | – | 39.63
m1 = 0.000125 | 0.00286 | 0.00313 | 0.00351 | 0.00375 | 0.00411 | 0.00465 | –
m1 = 0.000133 | 0.003 | 0.00333 | 0.00371 | 0.00401 | 0.00436 | 0.0049 | –
m1 = 0.00014 | – | – | – | – | – | – | 39.01
m1 = 0.000143 | 0.00321 | 0.00354 | 0.00392 | 0.00426 | 0.00463 | 0.00514 | –
m1 = 0.00015 | 0.00333 | 0.00365 | 0.00407 | 0.00448 | 0.00486 | 0.00538 | –
m1 = 0.000158 | 0.00344 | 0.00377 | 0.00423 | 0.00468 | 0.005 | 0.00563 | –
m1 = 0.000167 | 0.00354 | 0.00391 | 0.00442 | 0.00491 | 0.00524 | 0.00588 | –
m1 = 0.00017 | – | – | – | – | – | – | 38.87
m1 = 0.000176 | 0.00364 | 0.00405 | 0.00458 | 0.00514 | 0.00548 | 0.0062 | –
m1 = 0.000188 | 0.00373 | 0.00418 | 0.00475 | 0.0054 | 0.00576 | 0.00653 | –
m1 = 0.000197 | 0.00382 | 0.00427 | 0.00487 | 0.00557 | 0.00593 | 0.00682 | –
m1 = 0.0002 | – | – | – | – | – | – | 38.31
m1 = 0.000207 | 0.0039 | 0.00436 | 0.005 | 0.00574 | 0.00612 | 0.00712 | –
m1 = 0.000218 | 0.00399 | 0.00447 | 0.00514 | 0.00588 | 0.00632 | 0.00745 | –
m1 = 0.000231 | 0.00409 | 0.00457 | 0.00529 | 0.00606 | 0.00655 | 0.00772 | –
m1 = 0.00024 | 0.00416 | 0.00465 | 0.00539 | 0.00617 | 0.00667 | 0.00786 | –
m1 = 0.00025 | 0.00422 | 0.00473 | 0.00549 | 0.00628 | 0.0068 | 0.00805 | –
m1 = 0.000261 | 0.0043 | 0.00482 | 0.0056 | 0.00641 | 0.00694 | 0.00823 | –
m1 = 0.000273 | 0.00438 | 0.00489 | 0.00572 | 0.00652 | 0.00708 | 0.00839 | –
m1 = 0.000286 | 0.00448 | 0.00499 | 0.00584 | 0.00667 | 0.00724 | 0.00858 | –
m1 = 0.0003 | 0.00459 | 0.00512 | 0.00597 | 0.00681 | 0.0074 | 0.00877 | 37.21
